Here are results for 6 compounds from US20260216152A1, “Combinations Comprising Benzodioxol as GLP-1R Agonists for Use in the Treatment of NASH/NAFLD and Related Diseases” (Pfizer Inc., priority 2019, published 2026).

SMILES strings stand for the structures. Where only a bound is given, the exact number is not on record here.

For one data set, the target named is T1, MGAT3 (Homo sapiens, UniProt Q86VF5).
T1 sequence (Q86VF5 1-341): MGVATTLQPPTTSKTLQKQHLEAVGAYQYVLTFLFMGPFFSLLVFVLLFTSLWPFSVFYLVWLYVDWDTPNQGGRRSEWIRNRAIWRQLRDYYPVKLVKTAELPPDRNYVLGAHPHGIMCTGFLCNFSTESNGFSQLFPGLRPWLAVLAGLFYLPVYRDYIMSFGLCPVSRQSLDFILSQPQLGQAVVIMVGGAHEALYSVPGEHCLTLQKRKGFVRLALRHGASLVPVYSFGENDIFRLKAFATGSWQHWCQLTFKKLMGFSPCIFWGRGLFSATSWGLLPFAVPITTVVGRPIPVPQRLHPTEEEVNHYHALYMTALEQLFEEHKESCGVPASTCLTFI
As to the kind of experiment: Selectivity by biochemical assessment versus MGAT3. The note with it: in vitro. An excerpt:
(§1) (S)-2-(5-((3-ethoxypyridin-2-yl)oxy)pyridin-3-yl)-N-(tetrahydrofuran-3-yl)pyrimidine-5-carboxamide is an oral, small molecule DGAT2 inhibitor that is postulated to decrease hepatic triglyceride (TG) synthesis and hepatic lipid burden in NAFLD and NASH.

The target in a further data set is T2, mouse MGAT1 (Mus musculus, UniProt Q91ZV4).
T2 sequence (Q91ZV4 1-335): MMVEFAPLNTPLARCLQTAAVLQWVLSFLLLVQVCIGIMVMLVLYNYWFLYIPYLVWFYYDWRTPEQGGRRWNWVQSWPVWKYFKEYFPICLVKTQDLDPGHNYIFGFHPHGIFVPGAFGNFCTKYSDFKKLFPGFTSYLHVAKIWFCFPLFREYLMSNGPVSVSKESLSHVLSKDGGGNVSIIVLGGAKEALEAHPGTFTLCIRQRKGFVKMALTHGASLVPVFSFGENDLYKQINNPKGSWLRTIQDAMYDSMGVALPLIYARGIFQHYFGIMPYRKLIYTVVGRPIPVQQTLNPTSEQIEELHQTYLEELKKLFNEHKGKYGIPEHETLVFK
As to the kind of experiment: Selectivity by biochemical assessment versus mouse MGAT1. To be noted: in vitro.
From the text: as §1

Data set [1] in a line: Longer-term studies in western diet fed rats. It counts as in vivo.
From the text: as §1

In data set [2] the target is T3, recombinant human DGAT1 (hDGAT1) (Homo sapiens, UniProt O75907).
T3 sequence (O75907 1-488): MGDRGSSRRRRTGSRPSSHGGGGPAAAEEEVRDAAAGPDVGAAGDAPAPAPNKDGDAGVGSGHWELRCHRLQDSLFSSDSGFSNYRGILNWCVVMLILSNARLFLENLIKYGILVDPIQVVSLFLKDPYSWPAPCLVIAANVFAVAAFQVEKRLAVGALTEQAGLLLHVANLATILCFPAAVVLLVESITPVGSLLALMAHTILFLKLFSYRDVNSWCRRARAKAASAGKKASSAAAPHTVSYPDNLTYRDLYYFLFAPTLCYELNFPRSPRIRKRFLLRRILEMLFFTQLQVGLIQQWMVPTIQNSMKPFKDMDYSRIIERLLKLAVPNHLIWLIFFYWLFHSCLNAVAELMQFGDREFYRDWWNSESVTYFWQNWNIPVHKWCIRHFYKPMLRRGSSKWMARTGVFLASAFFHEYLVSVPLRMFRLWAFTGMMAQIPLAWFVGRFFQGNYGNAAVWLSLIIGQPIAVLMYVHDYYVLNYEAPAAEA
As to the kind of experiment: Selectivity by biochemical assessment versus hDGAT1. To be noted: in vitro.
From the text: as §1

A short description of data set [3]: Plasma triacylglycerol in rats fed a sucrose-diet. Type of data set: in vivo.
From the text: as §1

Data set [4] concerns the target monoacylglycerol acyltransferase 2 (MGAT2) (Homo sapiens, UniProt Q3SYC2). In words: Selectivity by biochemical assessment versus MGAT2. To be noted: in vitro.
From the text: as §1

Data set [5] deals with fructose-induced steatosis. In words: Dietary fructose-feeding model with Sprague Dawley rats. It counts as in vivo. The text has this:
[(1R,5S,6R)-3-{2-[(2S)-2-methylazetidin-1-yl]-6-(trifluoromethyl)pyrimidin-4-yl}-3-azabicyclo[3.1.0]hex-6-yl]acetic acid is a potent reversible inhibitor of human KHK-C The fructose, not glucose, component of dietary sugar is unique in its ability to promote features of metabolic syndrome, including steatosis, insulin resistance, and obesity.

The next data set deals with circulating FGF19. In words: Circulating FGF19 levels after single and multiple doses. It counts as in vivo. An excerpt: Pharmacological activation of […] has been proposed as a target for the treatment of NASH (Cariou 2008, Porez et al 2012). […] The nuclear receptor FXR, also known as the Bile Acid Receptor (BAR; NR1H4), is responsible for modulating bile acid production, conjugation, and elimination.

A short description of data set [6]: Thermodynamic stability of crystal forms versus water activity. It counts as physicochemical. The note with it: ambient temperature; 0.2 = 20% RH. Here is the method:
Form 1 of Example ACCi is anhydrous and is thermodynamically stable below a water activity of about 0.2 (20% RH) at ambient temperature. Characteristic PXRD peaks of Form 1 of Example ACCi, expressed as 2θ+0.2° 2θ are at 9.6, 10.7, and 11.3.
Form 2 of Example ACCi is a trihydrate and is thermodynamically stable above a water activity of about 0.2 at ambient temperature and 20% RH. Characteristic PXRD peaks of Form 2 of Example ACCi, expressed as 2θ+0.2° 2θ are at 8.4, 9.0, 10.5, 15.0, and 24.7.

The test system of a further data set is rat ACC isozymes. As to the kind of experiment: Inhibition of rat ACC isozymes, incorporation of [14C]-carbonate into [14C]-malonyl-CoA. Type of data set: biochemical. The note with it: saturating concentrations of ATP.
Data set [7] can be described thus: Circulating TGs in human subjects. It counts as in vivo. An excerpt:
(§2) It appears that the administration of an ACC inhibitor may have positive effects to lower hepatic TGs and potentially other beneficial effects on treatment of NASH.

Data set [8] is described as follows: in vivo. To be noted: rat.
The next data set relates to liver malonyl-CoA. As to the kind of experiment: Liver malonyl-CoA in rats. It counts as in vivo.
A short description of data set [9]: in vivo. To be noted: monkey.
Another data set deals with human ACC isozymes. As to the kind of experiment: Inhibition of human ACC isozymes, incorporation of [14C]-carbonate into [14C]-malonyl-CoA. The note with it: saturating concentrations of ATP. It counts as biochemical.
Data set [10] in a line: Western diet fed Sprague Dawley rats, ACCi and DGAT2i as monotherapy and in combination (FIG. 10-18). It counts as in vivo.
From the text: as §2

The test system of another data set is hepatic DNL. To be noted: Phase 1 study, healthy adult subjects; cited from earlier work.

Sequence of monoacylglycerol acyltransferase 2 (MGAT2) (Q3SYC2 whole entry): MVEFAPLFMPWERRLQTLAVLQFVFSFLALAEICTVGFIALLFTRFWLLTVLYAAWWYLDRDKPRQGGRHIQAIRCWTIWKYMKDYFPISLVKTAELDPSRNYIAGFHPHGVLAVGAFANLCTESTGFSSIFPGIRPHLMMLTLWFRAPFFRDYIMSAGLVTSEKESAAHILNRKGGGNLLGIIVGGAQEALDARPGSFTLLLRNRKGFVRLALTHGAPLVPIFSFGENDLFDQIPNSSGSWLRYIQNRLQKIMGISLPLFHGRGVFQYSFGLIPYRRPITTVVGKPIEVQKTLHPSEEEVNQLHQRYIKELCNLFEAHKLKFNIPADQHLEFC

Take `CCOc1cccnc1Oc1cncc(-c2ncc(C(=O)N[C@H]3CCOC3)cn2)c1` [Example DGAT2i, (S)-2-(5-((3-ethoxypyridin-2-yl)oxy)pyridin-3-yl)-N-(tetrahydrofuran-3-yl)pyrimidine-5-carboxamide]: on MGAT3, the “selectivity versus MGAT3” value is given as more than 2000 fold. For the same compound, at mouse MGAT1, the “selectivity versus mouse MGAT1” value is listed as more than 2000 fold. For the same compound, in [1], the hepatic lipid accumulation result is given as “reduced” and the plasma triacylglycerol entry is on record as “reduced”. Further, in data set [2], the “selectivity versus hDGAT1” value is more than 2000 fold. Further, the plasma triacylglycerol result in [3] is on record as “robust, dose-dependent reduction of plasma triacylglycerol”. Besides, the “selectivity versus MGAT2” value in [4] is listed as more than 2000 fold.
For `C[C@H]1CCN1c1nc(N2C[C@@H]3[C@@H](CC(=O)O)[C@@H]3C2)cc(C(F)(F)F)n1` [Example KHKi, [(1R,5S,6R)-3-{2-[(2S)-2-methylazetidin-1-yl]-6-(trifluoromethyl)pyrimidin-4-yl}-3-azabicyclo[3.1.0]hex-6-yl]Acetic acid], the “incidence of fructose-induced steatosis” value in data set [5] was “reduced the incidence of fructose-induced steatosis”.
On to `O=C(O)c1cc(F)c2nc(N3C4CC[C@H]3CC(OCc3c(-c5ccccc5OC(F)(F)F)noc3C3CC3)C4)sc2c1` (stereo partly drawn) [Tropifexor, 2-[(1R,3R,5S)-3-({5-cyclopropyl-3-[2-(trifluoromethoxy)phenyl]-1,2-oxazol-4-yl}methoxy)-8-azabicyclo[3.2.1]octan-8-yl]-4-fluoro-1,3-benzothiazole-6-carboxylic acid], for which the “circulating FGF19 levels” value with circulating FGF19 is given as “robust, dose-dependent increase in circulating FGF19 levels”.
For `COc1cc(C(=O)N2CCC3(CC2)CC(=O)c2c(cnn2C(C)C)C3)cc(-c2ccc(C(=O)O)cc2)n1` [Form 2 of Example ACCi], the “water activity at which the form is thermodynamically stable” value in data set [6] was more than 0.2.
In the case of `COc1cc(C(=O)N2CCC3(CC2)CC(=O)c2c(cnn2C(C)C)C3)cc(-c2ccc(C(=O)O)cc2)n1` [Example ACCi, 4-(4-(1-isopropyl-7-oxo-1,4,6,7-tetrahydrospiro[indazole-5,4′-piperidine]-1′-carbonyl)-6-methoxypyridin-2-yl)benzoic Acid], the “inhibition of incorporation of [14C]-carbonate into [14C]-malonyl-CoA” value in the data set with rat ACC isozymes and in the data set with human ACC isozymes was “inhibited incorporation of [^14C]-carbonate into [^14C]-malonyl-CoA in a concentration-dependent manner” throughout. Further, the “circulating TGs” value in data set [7] is reported as “elevations in circulating TGs”. Further, the Kp in the data set “in vivo [8]” and in “in vivo [9]” was not below 100 in each case. In addition, the “liver malonyl-CoA” value in the data set on liver malonyl-CoA is “dose and free plasma concentration-dependent reductions in liver malonyl-CoA”. In addition, the “circulating TGs (generally measured from plasma)” value in data set [10] is listed as “elevations in circulating TGs”. Moreover, the “hepatic DNL” value in the data set on hepatic DNL is “suppress hepatic DNL”.
For the compound `COc1cc(C(=O)N2CCC3(CC2)CC(=O)c2c(cnn2C(C)C)C3)cc(-c2ccc(C(=O)O)cc2)n1` [Form 1 of Example ACCi], the “water activity at which the form is thermodynamically stable” value in [6] was less than 0.2.
